Experiments:
Assay in all cases: relative viability (nuclei count vs DMSO), 5 days (fraction); higher = more cells survive
Sorafenib + Alpelisib = compound: CNC(=O)c1cc(Oc2ccc(NC(=O)Nc3ccc(Cl)c(C(F)(F)F)c3)cc2)ccn1 [Sorafenib] + Cc1nc(NC(=O)N2CCC[C@H]2C(N)=O)sc1-c1ccnc(C(C)(C)C(F)(F)F)c1 [Alpelisib] (partner 2 µM)
Outline: (§1)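 Cells from lung cancer lines were seeded into 1536-well plates and, one day later, dosed by pin tool. Treatments were either a single drug or a fixed dose of an anchor drug with five library-drug doses (not always all listed) in √10 steps. After 5 days, nuclei were stained in a one-step fixation (final 0.05% Triton X-100, 1% formaldehyde, 1 ug/ml Hoechst) and counted on 4× images, and relative viability is the treated-to-vehicle nuclei ratio, as the median of duplicate plates.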

Sorafenib + Palbociclib = compound: CNC(=O)c1cc(Oc2ccc(NC(=O)Nc3ccc(Cl)c(C(F)(F)F)c3)cc2)ccn1 [Sorafenib] + CC(=O)c1c(C)c2cnc(Nc3ccc(N4CCNCC4)cn3)nc2n(C2CCCC2)c1=O [Palbociclib] (partner 0.5 µM)
Outline: as §1

Sorafenib + Bortezomib = compound: CNC(=O)c1cc(Oc2ccc(NC(=O)Nc3ccc(Cl)c(C(F)(F)F)c3)cc2)ccn1 [Sorafenib] + CC(C)C[C@H](NC(=O)[C@H](Cc1ccccc1)NC(=O)c1cnccn1)B(O)O [Bortezomib] (partner 0.002 µM)
Outline: as §1

Sorafenib + Pemetrexed = compound: CNC(=O)c1cc(Oc2ccc(NC(=O)Nc3ccc(Cl)c(C(F)(F)F)c3)cc2)ccn1 [Sorafenib] + Nc1nc2[nH]cc(CCc3ccc(C(=O)N[C@@H](CCC(=O)O)C(=O)O)cc3)c2c(=O)[nH]1 [Pemetrexed] (partner 0.2 µM)
Outline: as §1

Sorafenib + Phenformin = compound: CNC(=O)c1cc(Oc2ccc(NC(=O)Nc3ccc(Cl)c(C(F)(F)F)c3)cc2)ccn1 [Sorafenib] + N=C(N)NC(=N)NCCc1ccccc1 [Phenformin] (partner 250 µM)
Outline: as §1

| Cell Line | relative viability (Sorafenib + Alpelisib; first compound 0.08 µM) | relative viability (Sorafenib + Alpelisib; first compound 0.253 µM) | relative viability (Sorafenib + Alpelisib; first compound 2.53 µM) | relative viability (Sorafenib + Alpelisib; first compound 8 µM) | relative viability (Sorafenib + Palbociclib; first compound 0.08 µM) | relative viability (Sorafenib + Palbociclib; first compound 0.253 µM) | relative viability (Sorafenib + Palbociclib; first compound 2.53 µM) | relative viability (Sorafenib + Palbociclib; first compound 8 µM) | relative viability (Sorafenib + Bortezomib; first compound 0.08 µM) | relative viability (Sorafenib + Bortezomib; first compound 0.253 µM) | relative viability (Sorafenib + Bortezomib; first compound 2.53 µM) | relative viability (Sorafenib + Bortezomib; first compound 8 µM) | relative viability (Sorafenib + Pemetrexed; first compound 0.08 µM) | relative viability (Sorafenib + Pemetrexed; first compound 0.253 µM) | relative viability (Sorafenib + Pemetrexed; first compound 2.53 µM) | relative viability (Sorafenib + Pemetrexed; first compound 8 µM) | relative viability (Sorafenib + Phenformin; first compound 0.08 µM) | relative viability (Sorafenib + Phenformin; first compound 0.253 µM) | relative viability (Sorafenib + Phenformin; first compound 2.53 µM) | relative viability (Sorafenib + Phenformin; first compound 8 µM) |
| --- | --- | --- | --- | --- | --- | --- | --- | --- | --- | --- | --- | --- | --- | --- | --- | --- | --- | --- | --- | --- |
| NCI-H650 | 1.31 | 0.96 | 0.952 | 0.963 | 0.435 | 0.303 | 0.268 | 0.355 | 0.759 | 0.581 | 0.746 | 0.677 | 0.928 | 0.799 | 0.904 | 0.795 | 0.45 | 0.399 | 0.461 | 0.428 |
| NCI-H661 | 0.949 | 0.478 | 0.596 | 0.365 | 0.4 | 0.408 | 0.385 | 0.289 | 0.96 | 0.871 | 0.648 | 0.615 | 0.918 | 0.688 | 0.883 | 0.427 | 0.279 | 0.143 | 0.289 | 0.215 |
| NCI-H838 | 1.08 | 1.1 | 1.15 | 0.905 | 0.25 | 0.223 | 0.286 | 0.158 | 0.875 | – | 1.15 | 0.651 | 0.277 | 0.244 | 0.252 | 0.16 | 0.749 | – | 0.948 | 0.388 |
| NCI-H1355 | 0.887 | 0.767 | 0.784 | 0.778 | 0.421 | 0.41 | 0.431 | 0.39 | 1.15 | 1.05 | 1.14 | 1.15 | 1.04 | 0.953 | 1.02 | 0.963 | 0.497 | 0.468 | 0.452 | 0.387 |
| NCI-H1437 | 1.01 | 0.922 | 0.905 | 0.546 | 0.324 | 0.256 | 0.304 | 0.246 | 0.629 | 0.513 | 0.59 | – | 0.335 | 0.312 | 0.268 | 0.184 | 0.301 | 0.299 | 0.302 | 0.306 |
| NCI-H1651 | 0.979 | 0.981 | 0.996 | 0.547 | 0.556 | 0.52 | 0.533 | 0.516 | 0.995 | 0.855 | 0.92 | 0.801 | 0.575 | 0.601 | 0.611 | 0.511 | 0.389 | 0.307 | 0.318 | 0.148 |
| NCI-H1666 | 0.849 | 0.93 | 0.782 | 0.537 | 0.602 | 0.566 | 0.634 | 0.717 | – | 0.66 | 0.851 | – | 0.916 | 0.856 | – | 0.62 | 0.562 | 0.546 | 0.544 | 0.452 |
| NCI-H1734 | 0.685 | 0.654 | 0.633 | 0.568 | 0.376 | 0.329 | 0.37 | 0.275 | 1.01 | 1.14 | 0.885 | 0.346 | 0.431 | 0.415 | – | 0.374 | 0.459 | 0.362 | 0.411 | 0.236 |

— the supplement of paper PMC10307832
